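Method: 48-hour compound exposure of cells in 96-well plates, five concentrations, linear interpolation of endpoints. The concentration for 50% growth inhibition is given as GI50.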 Calls of active or inactive are those of the source. Cut-off read from the data, not from the text of the source: active = GI50 up to about 1.1 µM and inactive = higher.
What was measured:
Experiment in all cases: NCI anticancer screen, dose series, 48 h
IGROV-1 = tested on: IGROV-1
NCI-H460 = tested on: NCI-H460
NCI-H23 = tested on: NCI-H23
HOP-92 = tested on: HOP-92
A549 = tested on: A549
DU-145 = tested on: DU-145
OVCAR-5 = tested on: OVCAR-5
UACC-257 = tested on: UACC-257
MDA-N = tested on: MDA-N
SNB-19 = tested on: SNB-19
K562 = tested on: K562
CCRF-CEM = tested on: CCRF-CEM
786-0 = tested on: 786-0
SK-OV-3 = tested on: SK-OV-3
OVCAR-3 = tested on: OVCAR-3
MDA-MB-231 = tested on: MDA-MB-231
M14 = tested on: M14
MDA-MB-435 = tested on: MDA-MB-435
EKVX = tested on: EKVX
SK-MEL-28 = tested on: SK-MEL-28
SNB-75 = tested on: SNB-75
HT-29 = tested on: HT-29
OVCAR-4 = tested on: OVCAR-4
SN12C = tested on: SN12C
MOLT-4 = tested on: MOLT-4
U-251 = tested on: U-251
SK-MEL-5 = tested on: SK-MEL-5
HCT-116 = tested on: HCT-116
SW-620 = tested on: SW-620
NCI-H226 = tested on: NCI-H226
SF-268 = tested on: SF-268
SF-295 = tested on: SF-295
RPMI-8226 = tested on: RPMI-8226
CAKI-1 = tested on: CAKI-1
SK-MEL-2 = tested on: SK-MEL-2
NCI/ADR-RES = tested on: NCI/ADR-RES
HL-60 = tested on: HL-60
OVCAR-8 = tested on: OVCAR-8
KM12 = tested on: KM12
UACC-62 = tested on: UACC-62
TK-10 = tested on: TK-10
COLO 205 = tested on: COLO 205
SR = tested on: SR
HCC 2998 = tested on: HCC 2998
LOX IMVI = tested on: LOX IMVI
PC-3 = tested on: PC-3
SF-539 = tested on: SF-539
ACHN = tested on: ACHN
MCF7 = tested on: MCF7
Malme-3M = tested on: Malme-3M
NCI-H522 = tested on: NCI-H522
BT-549 = tested on: BT-549
RXF 393 = tested on: RXF 393
T47D = tested on: T47D
HCT-15 = tested on: HCT-15
Hs-578T = tested on: Hs-578T
UO-31 = tested on: UO-31
HOP-62 = tested on: HOP-62

Measured: GI50

N=C(N)NS(=O)(=O)c1ccc(NC(=O)c2ccc3nc4ccccc4c(O)c3c2)cc1
inactive: IGROV-1 > 100 µM | NCI-H460 > 100 µM | NCI-H23 > 100 µM | HOP-92 > 100 µM | A549 > 100 µM | DU-145 > 100 µM | OVCAR-5 > 100 µM | UACC-257 > 100 µM | MDA-N > 100 µM | SNB-19 > 100 µM | K562 > 100 µM | CCRF-CEM > 100 µM | 786-0 > 100 µM | SK-OV-3 > 100 µM | OVCAR-3 > 100 µM | MDA-MB-231 > 100 µM | M14 > 100 µM | MDA-MB-435 > 100 µM | EKVX > 100 µM | SK-MEL-28 > 100 µM | SNB-75 > 100 µM | HT-29 > 100 µM | OVCAR-4 > 100 µM | SN12C > 100 µM | MOLT-4 > 100 µM | U-251 > 100 µM | SK-MEL-5 > 100 µM | HCT-116 > 100 µM | SW-620 > 100 µM | NCI-H226 > 100 µM | SF-268 > 100 µM | SF-295 > 100 µM | RPMI-8226 > 100 µM | CAKI-1 > 100 µM | SK-MEL-2 > 100 µM | NCI/ADR-RES > 100 µM | HL-60 > 100 µM | OVCAR-8 > 100 µM | KM12 > 100 µM | UACC-62 > 100 µM | TK-10 > 100 µM | COLO 205 > 100 µM | SR > 100 µM | HCC 2998 > 100 µM | LOX IMVI 49.7 µM | PC-3 > 100 µM | SF-539 > 100 µM | ACHN > 100 µM | MCF7 > 100 µM | Malme-3M > 100 µM | NCI-H522 > 100 µM | BT-549 > 100 µM | RXF 393 > 100 µM | T47D > 100 µM | Hs-578T > 100 µM | UO-31 > 100 µM | HOP-62 > 100 µM
> 100 µM: HCT-15

CN(c1ccccc1Cl)S(=O)(=O)c1ccc([N+](=O)[O-])cc1
inactive: IGROV-1 > 100 µM | NCI-H460 > 100 µM | NCI-H23 > 100 µM | A549 > 100 µM | DU-145 > 100 µM | OVCAR-5 > 100 µM | UACC-257 > 100 µM | MDA-N > 100 µM | SNB-19 > 100 µM | K562 > 100 µM | CCRF-CEM > 100 µM | 786-0 > 100 µM | SK-OV-3 > 100 µM | OVCAR-3 > 100 µM | MDA-MB-231 > 100 µM | M14 > 100 µM | MDA-MB-435 > 100 µM | EKVX > 100 µM | SK-MEL-28 > 100 µM | SNB-75 > 100 µM | HT-29 > 100 µM | OVCAR-4 > 100 µM | SN12C > 100 µM | MOLT-4 > 100 µM | U-251 > 100 µM | SK-MEL-5 > 100 µM | HCT-116 > 100 µM | SW-620 > 100 µM | NCI-H226 > 100 µM | SF-268 > 100 µM | SF-295 > 100 µM | RPMI-8226 > 100 µM | CAKI-1 > 100 µM | SK-MEL-2 > 100 µM | NCI/ADR-RES > 100 µM | HL-60 > 100 µM | OVCAR-8 > 100 µM | KM12 > 100 µM | UACC-62 > 100 µM | TK-10 > 100 µM | COLO 205 > 100 µM | SR > 100 µM | HCC 2998 > 100 µM | LOX IMVI > 100 µM | PC-3 > 100 µM | SF-539 > 100 µM | ACHN > 100 µM | MCF7 > 100 µM | Malme-3M > 100 µM | NCI-H522 > 100 µM | BT-549 > 100 µM | RXF 393 > 100 µM | T47D > 100 µM | Hs-578T > 100 µM | UO-31 > 100 µM | HOP-62 > 100 µM
> 100 µM: HCT-15

— ChEMBL document CHEMBL1201862, “PubChem BioAssay data set” (2004)
